Laboratory results taken from paper PMC6713424 (Journal of Medicinal Chemistry, 2019).
“Also recorded” adds a separate entry of the source.

Key:
[1] = test system: NNMT activity (MNA production) in HSC-2 cells; experiment: Cellular MNA levels in HSC-2 cells; type: cell-based, human; details: HSC-2, 100 μM, 72 h; same effect in DMSO control
[2] = test system: HSC-2 human oral cancer cells; experiment: MTT cell proliferation assay in HSC-2 cells; type: cell-based; details: HSC-2, 1-100 μM, 24, 48 and 72 h

| Structure (SMILES) | cellular MNA production (in words) [1] | effect on cell proliferation (in words) [2] |
| --- | --- | --- |
| Nc1ncnc2c1ncn2[C@@H]1O[C@H](CN(CC[C@H](N)C(=O)O)Cc2ccc3ccccc3c2)[C@@H](O)[C@H]1O [Compound 78, (S)-2-Amino-4-((((2R,3S,4R,5R)-5-(6-amino-9H-purin-9-yl)-3,4-dihydroxytetrahydrofuran-2-yl)methyl)(naphthalen-2-ylmethyl)amino)butanoic Acid] | increase in cellular MNA production | notable decrease in cell proliferation; also recorded: significant inhibitory effect on cell proliferation |
| NC(=O)c1cccc(CN(CC[C@H](N)C(=O)O)C[C@H]2O[C@@H](n3cnc4c(N)ncnc43)[C@H](O)[C@@H]2O)c1 [Compound 1] | – | not significantly inhibited |
| Nc1ncnc2c1ncn2[C@@H]1O[C@H](CN(CCC[C@H](N)C(=O)O)Cc2ccc3ccccc3c2)[C@@H](O)[C@H]1O [Compound 81, (S)-2-Amino-5-((((2R,3S,4R,5R)-5-(6-amino-9H-purin-9-yl)-3,4-dihydroxytetrahydrofuran-2-yl)methyl)(naphthalen-2-ylmethyl)amino)pentanoic Acid] | – | not significantly inhibited |
